Test results reported in US5128354A, “Agent for treating ischemic brain damage” (priority 1987, dated 1992).
Where two headings read alike, the source gives them in different places.

Key:
[1] = tested on: cerebral hypoxia; experiment: Prolonging effect on the persistent time of gasping movements in complete ischemia; format: in vivo, mice (STD-ddY strain, male); details: for ED (15% prolongation): Mus musculus, po, read-out: Complete ischemia PD15 (dose which prolonged the persistent time of gasping movements by 15%)
Method: (§1) Protective effect on cerebral hypoxia
(1) Prolonging effect on the persistent time of gasping movements in complete ischemia
This test was carried out according to the method described in Arch. int. Pharmacodyn., 233, 136-144 (1978).
Male mice of STD-ddY strain weighing 22-26 g were used in groups of 5 animals. A prescribed amount of test compounds, suspended in a 0.5% aqueous tragacanth solution, was orally administered to mice at a volume of 0.1 ml per 10 g of body weight. Two hours or one hour (for carbamazepine) after the administration of test compounds, the necks of the animals were cut with scissors for decapitation. The persistent time of gasping movements in the isolated heads was measured. To control group was orally administered only the same volume of a 0.5% aqueous tragacanth solution. The PD15 was calculated from the dose-activity relationship. The PD15 means the dose of a test compound which prolonged the persistent time of gasping movements by 15% in comparison with that of control group.

[2] = tested on: cerebral hypoxia; experiment: Prolonging effect on survival time of mice in normobaric hypoxia; format: in vivo, mice (STD-ddY strain, male); details: Mus musculus, po, read-out: Normobaric hypoxia PD30 (dose which prolonged the survival time by 30%)
Method: as §1
(2) Prolonging effect on survival time of mice in normobaric hypoxia
This test was carried out according to the method described in Naunyn-Schmiedeberg's Arch. Pharmacol., 334, 282-289 (1986).
Male mice of STD-ddY strain weighing […] were used in groups of 5 animals. A prescribed amount of test compounds, suspended in a 0.5% aqueous tragacanth solution, was orally administered to mice at a volume of 0.1 ml per 10 g of body weight. Two hours or one hour (for carbamazepine) after the administration of test compounds, each animal was taken in a 2.5-liter plastic chamber, and a mixed gas of 4% oxygen and 96% nitrogen was passed through the chamber at a rate of 4 liters/minute. There was measured the time to the death (respiratory cessation) of the animal. To control group was orally administered only the same volume of a 0.5% aqueous tragacanth solution. The PD30 was calculated from the dose-activity relationship. The PD30 means the dose of a test compound which prolonged the survival time by 30% in comparison with that of control group.

[3] = tested on: delayed neuronal death in the gerbil hippocampal CA1 subfield; experiment: Protective effect on delayed neuronal death in the gerbil hippocampus following a transient ischemia; format: in vivo, Mongolian gerbils (male); details: p.o.; for CA1 neuronal density: ± S.E., 5 min occlusion, 4 days after
Method: Protective effect on delayed neuronal death in the gerbil hippocampus following a transient ischemia
This test was carried out according to the method described in Brain Res., 239, 57-69 (1982).
Male Mongolian gerbils weighing 65-85 g were used in groups of 5 or 6 animals. A prescribed amount of test compounds, suspended in a 0.5% aqueous tragacanth solution, was orally administered to animals at a volume of 0.2 ml per 100 g of body weight. To control group was orally administered only the same volume of 0.5% aqueous tragacanth solution. One hour after the administration of test compounds, the necks of the gerbils were opened by a mid line incision under ether anesthesia, and then the bilateral common carotid arteries were exposed and occluded with Zen clips to block the blood flow. After 5 minutes, the clips were released and the blood flow was restored. Animals for the sham-operated group were operated in the same manner as above except that the occlusion of the carotid arteries. After 4 days, the animals were anesthetized with pentobarbital and fixed by transcardiac perfusion with a fixative solution containing 2.5% glutaraldehyde and 2% formaldehyde in 0.1M phosphate buffer (pH 7.4) at a pressure of 120 cm H2 O, and then the brains were removed. After the isolated brains were kept in the same fixative solution as above overnight, they were cut into coronal sections which contained the hippocampal area 0.5-1.0 mm posterior to the most rostral tip of the hippocampus or 1.4-1.9 mm posterior to bregma. Dissected brains were dehydrated and then embedded in paraffin. From the paraffin block, 4 μm-thin sections were prepared and subjected to hematoxylin-eosin staining.
The number of morphologically intact neurons remaining in the hippocampal CA1 subfield of the above tissue specimen was measured using a computer-image digitizer (Image Research Inc., Canada, MCID model) at a magnification of 200×, and neuronal density per mm^2 area of the right and left hippocampus, namely, the CA1 neuronal density, was calculated.
The value of the CA1 neuronal density in the table was calculated based on the average of the numbers of the remaining neurons in the right and left hippocampus of each animal. Student's t-test was used for the statistical analysis.

[4] = Hypnonarcotic activity (loss of righting reflex); set-up: species or system mice (STD-ddY strain, male); details: mouse, in vivo, po
Method: (§2) This test was carried out according to the method described in Japan. J. Pharmacol., 13, 259-273 (1963).
(§3) Male mice of STD-ddY strain weighing 22-26 g were used in groups of 5-10 animals. A prescribed amount of test compounds, suspended in a 0.5% aqueous tragacanth solution, was orally administered to mice at a volume of 0.1 ml per 10 g of body weight. […] The HD50 was calculated by Probit method. The HD50 means the dose of a test compound which produced hypnonarcotic effect in 50% of animals.

[5] = Arch. int. Pharmacodyn., 286, 282-298 (1987); cited from earlier work
[6] = in vivo; format: in vivo; details: mouse, in vivo, po; mice, p.o.; mortality observed for 7 days; Probit method; read-out: Acute toxicity LD50
Method: (§4) Male mice of STD-ddY strain weighing 22-26 g were used in groups of 5-10 animals. A prescribed amount of test compounds, suspended in a 0.5% aqueous tragacanth solution, was orally administered to mice at a volume of 0.2 ml per 10 g of body weight.

[7] = tested on: mice; experiment: Hypnonarcotic activity (loss of righting reflex); set-up: species or system mice (STD-ddY strain, male); details: mouse, in vivo, po, 200 mg/kg
Method: as §2, §3

[8] = tested on: mice; experiment: in vivo; format: in vivo; details: p.o.
Method: as §4

[9] = mice, p.o., 2 h (1 h for carbamazepine) after administration
[10] = mice, p.o., 4% oxygen/96% nitrogen, 2 h (1 h for carbamazepine) after administration

| Compound | ED (15% prolongation) [1, 9] | ED (30% prolongation) [2, 10] | CA1 neuronal density ([3]; 10 mg/kg) | CA1 neuronal density ([3]; 30 mg/kg) | protective effect on delayed neuronal death (in words) ([3]; 100 mg/kg) | CA1 neuronal density ([3]; 100 mg/kg) | TD50 ([4]; mice, p.o., righting reflex lost for 60 minutes or more, Probit method, read-out: Hypnonarcotic activity HD50 (dose which produced hypnonarcotic effect in 50% of animals)) | effect against cerebral hypoxia (in words) [5] | ED (15% prolongation) [1] | ED (30% prolongation) [2] | LD50 at 168 h [6] | TD50 [4] | Clonic convulsion and death [7] | protective effects on cerebral hypoxia compared with reference drugs (Table 1) ([1]; mice, p.o., complete ischemia and normobaric hypoxia (also A2)) | protective effect on delayed neuronal death (in words) ([3]; 30 mg/kg) | toxicity (in words) [8] |
| --- | --- | --- | --- | --- | --- | --- | --- | --- | --- | --- | --- | --- | --- | --- | --- | --- |
| NC(=O)N1c2ccccc2C=Cc2ccccc21 [Carbamazepine] | 5.5 mg/kg | 19.6 mg/kg | 482 ± 272 number of cells/mm^2 | 932 ± 353 number of cells/mm^2 | relatively weak protective effect | 1235 ± 330 number of cells/mm^2 | 345 mg/kg | effective against cerebral hypoxia | – | – | – | – | – | – | – | – |
| CCC1(c2ccccc2)C(=O)NC(=O)NC1=O [Phenobarbital] | – | – | – | – | – | – | – | – | 15 mg/kg | 26.8 mg/kg | 201 mg/kg | – | – | – | – | – |
| O=C1NC(=O)C(c2ccccc2)(c2ccccc2)N1 [Phenytoin] | 5.5 mg/kg | 22.7 mg/kg | – | 228 ± 87 number of cells/mm^2 | relatively weak protective effect | 1464 ± 503 number of cells/mm^2 | – | effective against cerebral hypoxia | – | – | – | > 200 mg/kg | convulsion in all mice and of death in some mice | – | – | – |
| NS(=O)(=O)Cc1noc2ccccc12 [The active compound of the invention, 3-Sulfamoylmethyl-1,2-benzisoxazole] | – | – | 519 ± 28 number of cells/mm^2 | 2713 ± 228 number of cells/mm^2 | almost completely prevented the delayed neuronal death | 3326 ± 49 number of cells/mm^2 | – | – | 6 mg/kg | 29.4 mg/kg | 1890 mg/kg | 934 mg/kg | – | comparable to those of phenobarbital, phenytoin and carbamazepine | extremely strong protective effect | weak |
